# Reference: patent US11007169B2, “Cis-gnetin H and trans-gnetin H as therapeutic agents” (MIDDLE TENNESSEE STATE UNIVERSITY, priority 2014, dated 2021)
# What was measured:
# A549 cells = assay: Cell cycle analysis by flow cytometry, A549; type: cell-based, human; conditions: 100 μM, 24 hours
# Procedure: A549 and BT20 cells were first synchronized in the G0 phase by culturing cells for 24 hours in serum-free medium and then treated with 100 μM cis- or trans-gnetin H for 24 hours, respectively. Cell cycle analysis was done using propidium iodide (PI) staining as described (An et al., Mol. Cancer Ther. 2007; 6:61-9) and the cells were analyzed on a Guava Flow Cytometer with InCyte software (Millipore).
# [1] = system: phosphorylated IKK α/β (Ser176/180) in LPS-stimulated THP-1 cells; assay: Western blot, IKK β phosphorylation; type: cell-based, human
# Procedure: (§1) THP-1 cells were maintained in RPMI 1640 medium supplemented with 10% complement-inactivated FBS and 1% penicillin/streptomycin (complete culture medium) at 37° C. with 5% CO2 supplemented. Cell concentrations were adjusted to desired concentrations for each experiment by centrifugation at 500×g for 5 min and resuspended in complete culture medium with 100 nM of PMA. Cell concentration was adjusted to 5×10^5 cells/ml for all assays and 2.5×10^5 cells/ml were used for NF-κB nuclear translocation assay. Cells were seeded onto 96-, 24-, or 12-well plates and incubated for 48 to 72 h to allow for differentiation. Cells were washed with serum-free RPMI 1640 medium before each experiment to remove the undifferentiated cells.
# (§2) Differentiated THP-1 cells were pretreated with various concentrations of cis-gnetin H, trans-gnetin H, or 10 μM of Bay 11-7082 for 1 h and stimulated with 1 μg/ml of LPS for 15 min. Cells were lysed with radio-immunoprecipitation assay (RIPA; 1% Triton X-100, 0.5% Sodium deoxycholate, 0.1% sodium dodecyl sulfate, 150 mM sodium chloride, and 50 mM Tris-chloride) lysis buffer that contained protease and phosphatase inhibitor cocktail. Cell lysates were then tested for protein concentration using a BCA protein assay, and diluted with RIPA lysis buffer to normalize protein concentration in all samples. […]
# [2] = system: TNF-α in LPS-stimulated THP-1 cells; assay: Cytokine response by ELISA, TNF-α; type: cell-based, human; conditions: for IC50: Homo sapiens, THP-1, pretreated 1 h, LPS 4 h, ELISA; for inhibition of TNF-α: cis 12.5-50 μM, trans 8-30 μM, 20 ng/ml LPS, p<0.05
# Procedure: as §1
# Differentiated THP-1 cells were pretreated with various concentrations of cis-gnetin H, trans-gnetin H, or 1 μM of dexamethasone for 1 h and stimulated with 20 ng/ml of LPS for 4 h. Dexamethasone is a synthetic glucocorticoid that suppresses cytokine response and was used as a positive control (Abraham et al., 2006, J. Exp. Med., 203:1883-9; Steer et al., J. Biol. Chem., 2000, 275(24):18432-40). Supernatants were collected for human cytokine ELISAs and the manufacturer's protocol was followed to assess the cytokine response. Cells remaining after the supernatant collection were tested for relative viability by Alamar Blue cytotoxicity assay as described earlier.
# [3] = system: mitochondrial cytochrome c in A549 cells; assay: Analysis of cytochrome c by flow cytometry, A549; type: cell-based, human; conditions: 100 μM, 24 hours
# Procedure: (§3) A549 and BT20 cells were seeded in a 96-well plate (BD Falcon) at a density of 8000 cells/well and treated with 100 μM of cis- or trans-gnetin H for 24 hours. The expression of cytochrome c was evaluated using the FlowCellect Cytochrome c Kit (Millipore) according to the manufacturer's instructions. Cells were stained with either Anti-IgG1-FITC Isotype control or Anti-Cytochrome c-FITC, and data was acquired and analyzed using the Guava Flow Cytometer (Millipore).
# [4] = system: A549 cells (human lung carcinoma); assay: Inhibition of cell proliferation, AlamarBlue fluorescent assay, A549; type: cell-based; conditions: for inhibition at 10 µM: 48-hours treatment; for IC50: 48 hours, AlamarBlue, cancer cell line
# Procedure: (§4) The cancer cell lines used in this study included human lung carcinoma (A549), human breast carcinoma (BT20 and MCF-7) and human osteosarcoma (U2OS), with the normal cell lines human peripheral lung epithelial cells (HPL1A) and human mammary epithelial cells (HMEC) serving as controls. A549, BT20, MCF-7, U2OS and HMEC cells were purchased from American Type Culture Collection (ATCC, USA), and HPL1A cells were obtained from Nagoya University, Japan. A549 and BT20 were grown in RPMI-1640 (Sigma), MCF-7 was grown in Dulbecco's Modified Eagle Medium (DMEM) (Sigma) supplemented with 0.01 mg/ml human recombinant insulin (Sigma), U2OS and HMEC were grown in McCoy's 5A (ATCC), and HPL1A was grown in DMEM/F-12K (Sigma). The mediums were supplemented with 10% Fetal Bovine Serum (FBS) (Gibco), 1% penicillin and streptomycin and incubated in a humidified atmosphere with 5% CO2 at 37° C.
# (§5) The proliferation inhibition potential of cis- and trans-gnetin H was determined by a fluorescence dye staining method. Cells were seeded in a 96-well tissue culture-treated plate (BD Falcon) at a density of 4000 cells/well, and treated with cis- or trans-gnetin H for 48 hours. AlamarBlue dye (Invitrogen) was used to assess the viability of cells according to the manufacturer's instructions; the fluorescent intensity was read on a SpectraMax M2e microplate reader (Molecular Devices Inc.).
# For the determination of IC50 values, cells were treated with a serial dilution (320 μM, 100 μM, 32 μM, 10 μM, 3.2 μM, and 0.32 μM) of cis- or trans-gnetin H for 48 hours. Cell viability was determined with AlamarBlue dye (Invitrogen) and the IC50 values were calculated using non-linear regression analysis.
# BT20 cells = assay: Apoptosis assay by flow cytometry, BT20; type: cell-based, human; conditions: 100 μM, 24 hours
# Procedure: A549 and BT20 cells were seeded in a 96-well plate (BD Falcon) at a density of 8000 cells/well, and treated with cis- or trans-gnetin H for 24 hours. Apoptosis was assessed using Annexin V/7-AAD double staining as described (Bai et al., Cancer Sci. 2010; 101(2):488-493). Cells were analyzed on a Guava Flow Cytometer (Millipore) using InCyte software and the data was exported to FlowJo software for image display.
# [5] = system: phosphorylated IκB α (Ser32) in LPS-stimulated THP-1 cells; assay: Western blot, IκB α phosphorylation; type: cell-based, human; conditions: concentration-dependent
# Procedure: as §1, §2
# [6] = system: mitochondrial cytochrome c in BT20 cells; assay: Analysis of cytochrome c by flow cytometry, BT20; type: cell-based, human; conditions: 100 μM, 24 hours
# Procedure: as §3
# [7] = system: U2OS cells (human osteosarcoma); assay: Inhibition of cell proliferation, AlamarBlue fluorescent assay, U2OS; type: cell-based; conditions: 48 hours, cancer cell line
# Procedure: as §4
# as §5, with “Inc.). […]” for “Inc.).”
SMILES,"G0-G1 subpopulation, A549 (A549 cells)","M and G2-S subpopulation, A549 (A549 cells)",IKK β phosphorylation [1],IC50 [2] [µM],inhibition of TNF-α [2],cytochrome c release in A549 [3],inhibition at 10 µM [4] [%],IC50 [4] [nM],apoptosis induction in BT20 (BT20 cells),IκB α phosphorylation [5],cytochrome c release in BT20 [6],IC50 [7] [µM]
Oc1ccc(/C=C\c2c3c(cc4c2[C@H](c2cc(O)cc(O)c2)[C@@H](c2ccc(O)cc2)O4)O[C@H](c2ccc(O)cc2)[C@H]3c2cc(O)cc(O)c2)cc1 [cis-gnetin H],increased significantly,significant decrease,significantly inhibited,19,significant inhibition,release of mitochondrial cytochrome c,~99,2800,induce apoptosis,significantly inhibited,release of mitochondrial cytochrome c,9.32
Oc1ccc(/C=C/c2c3c(cc4c2[C@H](c2cc(O)cc(O)c2)[C@@H](c2ccc(O)cc2)O4)O[C@H](c2ccc(O)cc2)[C@H]3c2cc(O)cc(O)c2)cc1 [trans-gnetin H],increased significantly,significant decrease,significantly inhibited,6,significant inhibition,release of mitochondrial cytochrome c,~99,2600,induce apoptosis,significantly inhibited,release of mitochondrial cytochrome c,3.1
